pIC50: −log10 of the molar value.
Legend:
PDI = biological target: T1, PDI (Homo sapiens, UniProt P07237); experiment: insulin reduction turbidity assay with recombinant PDI (weak); assay type: biochemical
T1 construct: gene P4HB; recombinant PDI

ERp57 [1] = biological target: T2, ERp57 (Homo sapiens, UniProt P30101); experiment: insulin reduction turbidity assay with recombinant ERp57; irreversible after dilution; also competes with BAA in rat platelet lysate pull-down; assay type: biochemical
T2 construct: gene PDIA3; human recombinant ERp57
T2 sequence (P30101 25-505): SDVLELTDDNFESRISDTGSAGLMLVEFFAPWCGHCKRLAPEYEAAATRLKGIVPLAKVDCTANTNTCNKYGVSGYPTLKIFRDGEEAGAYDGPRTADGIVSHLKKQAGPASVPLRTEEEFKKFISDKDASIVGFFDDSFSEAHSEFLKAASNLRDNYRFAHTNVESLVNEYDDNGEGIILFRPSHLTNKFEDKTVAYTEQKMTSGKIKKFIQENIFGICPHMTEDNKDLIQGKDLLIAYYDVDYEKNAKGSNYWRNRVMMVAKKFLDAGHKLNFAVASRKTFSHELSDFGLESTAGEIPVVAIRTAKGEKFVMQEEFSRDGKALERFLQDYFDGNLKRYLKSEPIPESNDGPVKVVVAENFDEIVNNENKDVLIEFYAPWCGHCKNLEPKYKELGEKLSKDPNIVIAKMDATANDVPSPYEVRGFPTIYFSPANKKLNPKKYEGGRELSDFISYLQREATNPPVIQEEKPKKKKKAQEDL

ERp5 [2] = biological target: T3, ERp5 (Rattus norvegicus, UniProt Q63081); experiment: competition of BAA pull-down by excess untagged ADTM, immunoblot; […] inhibition of ERp5 activity at […]; assay type: cell-based
T3 construct: gene Pdia6; endogenous, rat platelet lysate
T3 sequence (Q63081 20-440): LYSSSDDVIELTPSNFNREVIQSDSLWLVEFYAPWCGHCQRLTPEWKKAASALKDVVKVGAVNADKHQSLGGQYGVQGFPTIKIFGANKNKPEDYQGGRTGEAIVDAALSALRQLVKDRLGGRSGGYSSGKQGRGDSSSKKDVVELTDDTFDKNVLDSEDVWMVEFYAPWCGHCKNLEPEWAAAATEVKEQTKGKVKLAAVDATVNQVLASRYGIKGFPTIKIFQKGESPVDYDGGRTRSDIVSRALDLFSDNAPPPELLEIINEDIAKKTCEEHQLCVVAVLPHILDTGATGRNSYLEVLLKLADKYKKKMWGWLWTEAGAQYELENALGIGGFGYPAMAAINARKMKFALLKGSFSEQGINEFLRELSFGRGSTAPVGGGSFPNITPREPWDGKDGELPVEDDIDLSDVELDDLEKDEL

ERp72 [3] = biological target: T4, ERp72 (Rattus norvegicus, UniProt P38659); experiment: competition of BAA pull-down by excess untagged ADTM, immunoblot; only […] inhibition of recombinant ERp72 at […]; assay type: cell-based
T4 construct: gene Pdia4; endogenous, rat platelet lysate
T4 sequence (P38659 21-643): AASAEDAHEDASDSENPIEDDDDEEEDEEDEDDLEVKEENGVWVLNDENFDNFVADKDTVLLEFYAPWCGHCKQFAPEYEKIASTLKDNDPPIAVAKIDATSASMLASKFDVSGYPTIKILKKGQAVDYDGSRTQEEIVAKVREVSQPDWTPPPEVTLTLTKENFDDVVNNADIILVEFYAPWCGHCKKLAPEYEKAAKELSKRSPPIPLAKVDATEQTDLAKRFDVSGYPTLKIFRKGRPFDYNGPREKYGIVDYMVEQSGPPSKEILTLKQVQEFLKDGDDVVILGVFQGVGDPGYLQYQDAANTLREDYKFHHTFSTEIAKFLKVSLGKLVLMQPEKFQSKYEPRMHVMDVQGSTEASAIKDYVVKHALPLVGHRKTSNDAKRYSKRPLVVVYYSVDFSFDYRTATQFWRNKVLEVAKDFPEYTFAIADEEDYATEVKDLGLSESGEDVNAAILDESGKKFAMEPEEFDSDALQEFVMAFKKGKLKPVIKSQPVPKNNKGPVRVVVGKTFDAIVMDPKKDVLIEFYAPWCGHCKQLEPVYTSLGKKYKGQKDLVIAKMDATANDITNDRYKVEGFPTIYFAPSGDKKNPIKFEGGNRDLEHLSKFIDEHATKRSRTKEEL

ERp5 [4] = biological target: T3, ERp5; experiment: NeutrAvidin pull-down from platelet lysate, LC-MS/MS and immunoblot, competed by excess ADTM; assay type: cell-based
ERp72 [5] = biological target: T4, ERp72; experiment: as above; assay type: cell-based
ERp57 [6] = biological target: T5, ERp57 (Rattus norvegicus, UniProt P11598); experiment: as above; assay type: cell-based
T5 construct: gene Pdia3; endogenous, rat platelet lysate
T5 sequence (P11598 25-505): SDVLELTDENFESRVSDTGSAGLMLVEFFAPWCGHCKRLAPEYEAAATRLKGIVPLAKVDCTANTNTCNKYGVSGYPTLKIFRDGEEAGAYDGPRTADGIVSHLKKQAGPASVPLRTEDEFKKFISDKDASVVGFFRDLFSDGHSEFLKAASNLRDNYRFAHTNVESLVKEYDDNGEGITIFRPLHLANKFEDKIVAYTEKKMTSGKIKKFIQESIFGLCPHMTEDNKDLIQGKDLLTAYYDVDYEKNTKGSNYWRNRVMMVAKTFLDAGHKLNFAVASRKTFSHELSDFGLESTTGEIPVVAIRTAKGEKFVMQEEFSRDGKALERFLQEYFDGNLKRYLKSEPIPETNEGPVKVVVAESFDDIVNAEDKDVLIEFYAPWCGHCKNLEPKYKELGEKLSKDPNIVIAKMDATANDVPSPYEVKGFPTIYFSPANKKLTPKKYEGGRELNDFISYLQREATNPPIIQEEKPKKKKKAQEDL

T1 sequence (P07237 18-508): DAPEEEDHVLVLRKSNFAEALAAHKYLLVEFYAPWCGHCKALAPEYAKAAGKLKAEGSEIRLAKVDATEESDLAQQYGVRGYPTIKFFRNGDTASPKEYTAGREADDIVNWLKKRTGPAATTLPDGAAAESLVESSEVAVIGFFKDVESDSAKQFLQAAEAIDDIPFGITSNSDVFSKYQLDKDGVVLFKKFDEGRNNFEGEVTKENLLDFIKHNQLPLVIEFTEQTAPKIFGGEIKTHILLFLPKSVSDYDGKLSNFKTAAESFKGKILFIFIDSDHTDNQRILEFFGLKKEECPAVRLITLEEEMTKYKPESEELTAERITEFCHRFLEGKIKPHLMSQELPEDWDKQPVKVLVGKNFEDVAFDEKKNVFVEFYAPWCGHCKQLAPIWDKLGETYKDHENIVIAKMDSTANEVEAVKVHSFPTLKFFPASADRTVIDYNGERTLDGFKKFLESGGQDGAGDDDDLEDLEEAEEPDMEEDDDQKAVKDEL

Row | inhibition at 300 µM (PDI) [%] | pIC50 (ERp57 [1]) | inhibition at 300 µM (ERp5 [2]) [%] | inhibition at 300 µM (ERp72 [3]) [%] | Structure (SMILES) | NeutrAvidin pull-down from platelet lysate, LC-MS/MS and immunoblot, competed by (ERp5 [4]) | NeutrAvidin pull-down from platelet lysate, LC-MS/MS and immunoblot, competed by (ERp72 [5]) | NeutrAvidin pull-down from platelet lysate, LC-MS/MS and immunoblot, competed by (ERp57 [6])
1 | 30 | 3.52 to 4.00 | 38 | 18 | CC(=O)Oc1ccc(C[C@@H](OC(C)=O)C(=O)OCc2nc(C)c(C)nc2C)cc1OC(C)=O [ADTM] |  |  | 
2 |  |  |  |  | O=C1N[C@H]2[C@H](CS[C@H]2CCCCC(=O)O[C@H](Cc2ccc(O)c(O)c2)C(=O)OCc2ccccc2)N1 [BAA] | We confirmed the identity of the pulled-down proteins as ERp72, ERp57 and ERp5 with their respective antibodies | We confirmed the identity of the pulled-down proteins as ERp72, ERp57 and ERp5 with their respective antibodies | specificity of the binding between BAA and these targets (ERp72, ERp57 and ERp5) could be demonstrated by the competition

— publication PMC4650696, “Novel anti-thrombotic agent for modulation of protein disulfide isomerase family member ERp57 for prophylactic therapy” (Scientific Reports, 2015)
